From publication PMC6915887, “Inhibition of human carboxylesterases by ginsenosides: structure–activity relationships and inhibitory mechanism” (Chinese Medicine, 2019)

Assays:
hCES1A = molecular target: T1, hCES1A (Homo sapiens, UniProt P23141); experiment: hCES1A inhibition assay (DME hydrolysis in HLM); type: biochemical; conditions: for IC50: HLM as enzyme source, DME hydrolysis as probe reaction, read-out: IC50 (μM) hCES1A; for inhibition of hCES1A-mediated DME hydrolysis (residual activity screen): HLM, ginsenoside 100 μM, result in words;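 as to all read-outs here: Read-out is D-luciferin luminescence formed from DME (3 µM) after 10 min at 37 °C in pH 6.5 PBS, HLM 1 µg/mL, inhibitor preincubated 3 min, oleanic acid as positive control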
T1 construct: tissue Bioreclamation IVT lot no; X008067; host or cells: pooled human liver microsomes (50 donors)
T1 sequence (P23141 18-567): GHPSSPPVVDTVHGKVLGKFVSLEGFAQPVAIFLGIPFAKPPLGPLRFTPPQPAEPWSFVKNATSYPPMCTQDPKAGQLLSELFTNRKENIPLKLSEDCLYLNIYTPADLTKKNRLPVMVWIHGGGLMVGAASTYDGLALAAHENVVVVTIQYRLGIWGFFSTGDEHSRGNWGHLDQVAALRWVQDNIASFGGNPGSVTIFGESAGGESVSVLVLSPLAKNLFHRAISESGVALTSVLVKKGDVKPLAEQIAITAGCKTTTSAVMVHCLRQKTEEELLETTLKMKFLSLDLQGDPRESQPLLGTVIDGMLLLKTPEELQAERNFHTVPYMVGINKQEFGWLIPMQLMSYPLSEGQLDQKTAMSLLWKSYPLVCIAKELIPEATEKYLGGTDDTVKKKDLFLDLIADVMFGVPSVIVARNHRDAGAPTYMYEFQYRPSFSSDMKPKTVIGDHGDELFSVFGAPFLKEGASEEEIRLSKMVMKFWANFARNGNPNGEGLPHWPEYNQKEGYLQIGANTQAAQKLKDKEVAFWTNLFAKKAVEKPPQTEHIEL
Protocol: DME hydrolysis was used as the probe reaction to assay the inhibitory effects of 25 ginsenosides against hCES1A, oleanic acid was used as a positive control of inhibition assays [43]. The incubation system contains 91 μL PBS (0.1 M pH 6.5), 5 μL HLM (1 μg/mL, final concentration) and 2 μL corresponding inhibitor. After pre-incubating the reaction mixture for 3 min at 37 °C, the reaction was started by adding 2 μL DME (3 μM, final concentration) with a total volume of 100 μL, in which the final content of DMSO was limited to 2% (v/v). After incubating for 10 min at 37 °C in a shaking bath, LDR (50 μL, equal volume of the incubation mixture) was added to terminate the reaction. The luminescence signals of D-luciferin (the hydrolytic metabolite of DME) was measured (excitation wavelength 580 nm) by a multi-mode microplate reader (SpectraMax® iD3, Molecular Devices, Austria).
(§1) All inhibition assays were performed in triplicate, nonlinear regression was used to determine the IC50 and Ki values with GraphPad Prism 7.0 software (GraphPad Software, Inc., La Jolla, USA).

hCES2A = molecular target: T2, hCES2A (Homo sapiens, UniProt O00748); experiment: hCES2A inhibition assay (FD hydrolysis in HLM); type: biochemical; conditions: for Specificity (hCES1A/hCES2A): ratio of IC50 values in HLM; for inhibition of hCES2A-mediated FD hydrolysis (residual activity screen): HLM, ginsenoside 100 μM, result in words; for IC50: HLM as enzyme source, FD hydrolysis as probe reaction, read-out: IC50 (μM) hCES2A;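 as to all read-outs here: HLM at 1 µg/mL in 0.1 M PBS pH 7.4, kinetic read at 37 °C every 30 s over 30 min, triplicate runs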
T2 construct: tissue Bioreclamation IVT lot no; X008067; host or cells: pooled human liver microsomes (50 donors)
T2 sequence (O00748 27-559): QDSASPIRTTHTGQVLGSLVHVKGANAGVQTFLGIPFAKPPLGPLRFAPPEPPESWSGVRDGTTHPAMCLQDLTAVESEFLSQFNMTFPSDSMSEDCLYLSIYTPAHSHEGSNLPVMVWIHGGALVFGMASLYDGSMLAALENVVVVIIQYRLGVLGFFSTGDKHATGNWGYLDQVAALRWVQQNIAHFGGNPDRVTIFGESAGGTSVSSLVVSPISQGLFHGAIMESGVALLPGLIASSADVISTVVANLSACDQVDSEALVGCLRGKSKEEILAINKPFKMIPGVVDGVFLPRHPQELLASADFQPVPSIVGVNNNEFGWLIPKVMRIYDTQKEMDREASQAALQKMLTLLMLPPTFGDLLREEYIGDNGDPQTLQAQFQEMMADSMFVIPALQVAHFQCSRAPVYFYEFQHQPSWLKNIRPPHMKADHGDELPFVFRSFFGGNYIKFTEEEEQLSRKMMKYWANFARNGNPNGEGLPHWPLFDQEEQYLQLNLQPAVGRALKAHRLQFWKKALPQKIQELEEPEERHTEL
Protocol: The incubation system contains 2 μL HLM (1 μg/mL, final concentration), 194 μL PBS (0.1 M pH 7.4) and 2 μL corresponding inhibitor. […] The kinetic parameters were set at 30 reads, with an interval of 30 s (30 min) and shake during 5 s before the first read at 37 °C.
as §1

CC(C)=CCC[C@](C)(O[C@@H]1O[C@H](CO)[C@@H](O)[C@H](O)[C@H]1O)[C@H]1CC[C@]2(C)[C@@H]1[C@H](O)C[C@@H]1[C@@]3(C)CC[C@H](O)C(C)(C)[C@@H]3CC[C@]12C [C-K, ginsenoside C-K]
IC50 (hCES1A): > 100 µM

CC(C)=CCC[C@](C)(O[C@@H]1O[C@H](CO)[C@@H](O)[C@H](O)[C@H]1O)[C@H]1CC[C@]2(C)[C@@H]1[C@H](O)C[C@@H]1[C@@]3(C)CC[C@H](O)C(C)(C)[C@@H]3[C@@H](O)C[C@]12C [F1, ginsenoside F1]
IC50 (hCES1A): > 100 µM
Specificity (hCES1A/hCES2A) (hCES2A): > 2.70

CC(C)=CCC[C@](C)(O[C@@H]1O[C@H](CO)[C@@H](O)[C@H](O)[C@H]1O)[C@H]1CC[C@]2(C)[C@@H]1[C@H](O)C[C@@H]1[C@@]3(C)CC[C@H](O[C@@H]4O[C@H](CO)[C@@H](O)[C@H](O)[C@H]4O)C(C)(C)[C@@H]3CC[C@]12C [F2]
IC50 (hCES1A): > 100 µM

CC(C)=CC/C=C(/C)C1CC[C@]2(C)C1[C@H](O)CC1[C@@]3(C)CC[C@H](O)C(C)(C)C3[C@@H](O[C@@H]3O[C@H](CO)[C@@H](O)[C@H](O)[C@H]3O[C@@H]3O[C@@H](C)[C@H](O)[C@@H](O)[C@H]3O)C[C@]12C (some centres unmarked) [F4]
IC50 (hCES1A): > 100 µM
Specificity (hCES1A/hCES2A) (hCES2A): > 2.22

CC1(C)CCC[C@](C)([C@H]2CC[C@]3(C)[C@@H]2[C@H](O)C[C@@H]2[C@@]4(C)CC[C@H](O)C(C)(C)[C@@H]4CC[C@]23C)O1 [Panaxadiol, panaxadiol]
IC50 (hCES1A): 6.95 ± 1.29 µM
inhibition of hCES2A-mediated FD hydrolysis (residual activity screen) (hCES2A): strong or moderate inhibition
Specificity (hCES1A/hCES2A) (hCES2A): 1.84

CC1(C)CCC[C@](C)([C@H]2CC[C@]3(C)[C@@H]2[C@H](O)C[C@@H]2[C@@]4(C)CC[C@H](O)C(C)(C)[C@@H]4[C@@H](O)C[C@]23C)O1 [Panaxatriol, panaxatriol]
IC50 (hCES1A): 34.9 ± 6.16 µM

CC(C)=CCC[C@](C)(O[C@@H]1O[C@H](CO)[C@@H](O)[C@H](O)[C@H]1O)C1CC[C@]2(C)C1[C@H](O)CC1[C@@]3(C)CC[C@H](O)C(C)(C)C3[C@@H](O[C@@H]3O[C@H](CO)[C@@H](O)[C@H](O)[C@H]3O[C@@H]3OC[C@@H](O)[C@H](O)[C@H]3O)C[C@]12C (some centres unmarked) [R1, ginsenoside R1]
IC50 (hCES1A): > 100 µM
IC50 (hCES2A): > 100 µM

CC(C)=CCC[C@](C)(O[C@@H]1O[C@H](CO[C@@H]2O[C@H](CO)[C@@H](O)[C@H](O)[C@H]2O)[C@@H](O)[C@H](O)[C@H]1O)[C@H]1CC[C@]2(C)[C@@H]1[C@H](O)C[C@@H]1[C@@]3(C)CC[C@H](O[C@@H]4O[C@H](CO)[C@@H](O)[C@H](O)[C@H]4O[C@@H]4O[C@H](CO)[C@@H](O)[C@H](O)[C@H]4O)C(C)(C)[C@@H]3CC[C@]12C [Rb1]
IC50 (hCES1A): > 100 µM
inhibition of hCES1A-mediated DME hydrolysis (residual activity screen) (hCES1A): hardly inhibit
IC50 (hCES2A): > 100 µM
inhibition of hCES2A-mediated FD hydrolysis (residual activity screen) (hCES2A): hardly inhibit

CC(C)=CCC[C@](C)(O[C@@H]1O[C@H](CO[C@@H]2OC[C@H](O)[C@H](O)[C@H]2O)[C@@H](O)[C@H](O)[C@H]1O)[C@H]1CC[C@]2(C)[C@@H]1[C@H](O)C[C@@H]1[C@@]3(C)CC[C@H](O[C@@H]4O[C@H](CO)[C@@H](O)[C@H](O)[C@H]4O[C@@H]4O[C@H](CO)[C@@H](O)[C@H](O)[C@H]4O)C(C)(C)[C@@H]3CC[C@]12C [Rb2]
IC50 (hCES1A): > 100 µM
inhibition of hCES1A-mediated DME hydrolysis (residual activity screen) (hCES1A): hardly inhibit
IC50 (hCES2A): > 100 µM
inhibition of hCES2A-mediated FD hydrolysis (residual activity screen) (hCES2A): hardly inhibit

CC(C)=CCC[C@](C)(O[C@@H]1O[C@H](CO[C@@H]2OC[C@@H](O)[C@H](O)[C@H]2O)[C@@H](O)[C@H](O)[C@H]1O)[C@H]1CC[C@]2(C)[C@@H]1[C@H](O)C[C@@H]1[C@@]3(C)CC[C@H](O[C@@H]4O[C@H](CO)[C@@H](O)[C@H](O)[C@H]4O[C@@H]4O[C@H](CO)[C@@H](O)[C@H](O)[C@H]4O)C(C)(C)[C@@H]3CC[C@]12C [Rb3]
IC50 (hCES1A): > 100 µM
inhibition of hCES1A-mediated DME hydrolysis (residual activity screen) (hCES1A): hardly inhibit
IC50 (hCES2A): > 100 µM
inhibition of hCES2A-mediated FD hydrolysis (residual activity screen) (hCES2A): hardly inhibit

CC(C)=CCC[C@](C)(O[C@@H]1O[C@H](CO[C@@H]2O[C@@H](CO)[C@H](O)[C@H]2O)[C@@H](O)[C@H](O)[C@H]1O)[C@H]1CC[C@]2(C)[C@@H]1[C@H](O)C[C@@H]1[C@@]3(C)CC[C@H](O[C@@H]4O[C@H](CO)[C@@H](O)[C@H](O)[C@H]4O[C@@H]4O[C@H](CO)[C@@H](O)[C@H](O)[C@H]4O)C(C)(C)[C@@H]3CC[C@]12C [Rc]
IC50 (hCES1A): > 100 µM
Specificity (hCES1A/hCES2A) (hCES2A): >1.22

CC(C)=CCC[C@](C)(O[C@@H]1O[C@H](CO)[C@@H](O)[C@H](O)[C@H]1O)[C@H]1CC[C@]2(C)[C@@H]1[C@H](O)C[C@@H]1[C@@]3(C)CC[C@H](O[C@@H]4O[C@H](CO)[C@@H](O)[C@H](O)[C@H]4O[C@@H]4O[C@H](CO)[C@@H](O)[C@H](O)[C@H]4O)C(C)(C)[C@@H]3CC[C@]12C [Rd]
IC50 (hCES1A): > 100 µM
Specificity (hCES1A/hCES2A) (hCES2A): > 7.12

CC(C)=CCC[C@](C)(O[C@@H]1O[C@H](CO)[C@@H](O)[C@H](O)[C@H]1O)[C@H]1CC[C@]2(C)[C@@H]1[C@H](O)C[C@@H]1[C@@]3(C)CC[C@H](O)C(C)(C)[C@@H]3[C@@H](O[C@@H]3O[C@H](CO)[C@@H](O)[C@H](O)[C@H]3O[C@@H]3O[C@@H](C)[C@H](O)[C@@H](O)[C@H]3O)C[C@]12C [Re, ginsenoside Re]
IC50 (hCES1A): > 100 µM
inhibition of hCES1A-mediated DME hydrolysis (residual activity screen) (hCES1A): hardly inhibit
IC50 (hCES2A): > 100 µM
inhibition of hCES2A-mediated FD hydrolysis (residual activity screen) (hCES2A): hardly inhibit

CC(C)=CCC[C@](C)(O[C@@H]1O[C@H](CO)[C@@H](O)[C@H](O)[C@H]1O)[C@H]1CC[C@]2(C)[C@@H]1[C@H](O)C[C@@H]1[C@@]3(C)CC[C@H](O)C(C)(C)[C@@H]3[C@@H](O[C@@H]3O[C@H](CO)[C@@H](O)[C@H](O)[C@H]3O)C[C@]12C [Rg1, ginsenoside Rg1]
IC50 (hCES1A): > 100 µM
inhibition of hCES1A-mediated DME hydrolysis (residual activity screen) (hCES1A): hardly inhibit
IC50 (hCES2A): > 100 µM
inhibition of hCES2A-mediated FD hydrolysis (residual activity screen) (hCES2A): hardly inhibit

CC(C)=CCC[C@](C)(O)[C@H]1CC[C@]2(C)[C@@H]1[C@H](O)C[C@@H]1[C@@]3(C)CC[C@H](O)C(C)(C)[C@@H]3[C@@H](O[C@@H]3O[C@H](CO)[C@@H](O)[C@H](O)[C@H]3O[C@@H]3O[C@@H](C)[C@H](O)[C@@H](O)[C@H]3O)C[C@]12C [Rg2, ginsenoside Rg2]
IC50 (hCES1A): > 100 µM
inhibition of hCES1A-mediated DME hydrolysis (residual activity screen) (hCES1A): hardly inhibit
IC50 (hCES2A): > 100 µM
inhibition of hCES2A-mediated FD hydrolysis (residual activity screen) (hCES2A): hardly inhibit

CC(C)=CCC[C@](C)(O)C1CC[C@]2(C)C1[C@H](O)CC1[C@@]3(C)CC[C@H](O[C@@H]4O[C@H](CO)[C@@H](O)[C@H](O)[C@H]4O[C@@H]4O[C@H](CO)[C@@H](O)[C@H](O)[C@H]4O)C(C)(C)C3CC[C@]12C (some centres unmarked) [Rg3]
IC50 (hCES1A): > 100 µM
Specificity (hCES1A/hCES2A) (hCES2A): > 9.64

CC(C)=CC/C=C(\C)[C@H]1CC[C@]2(C)[C@@H]1[C@H](O)C[C@@H]1[C@@]3(C)CC[C@H](O)C(C)(C)[C@@H]3[C@@H](O[C@@H]3O[C@H](CO)[C@@H](O)[C@H](O)[C@H]3O)C[C@]12C [Rh4]
IC50 (hCES1A): > 100 µM

CC1(C)CC[C@]2(C(=O)O)CC[C@]3(C)C(=CC[C@@H]4[C@@]5(C)CC[C@H](O)C(C)(C)[C@@H]5CC[C@]43C)[C@@H]2C1 [oleanic acid, reference compound]
IC50 (hCES1A): 0.1 µM
